Results reported in PMC8739956 (Frontiers in Oncology, 2021).
Entries after “also recorded” stand apart in the source; their conditions may differ. Read-outs that look alike come from different tables or passages of the source. Blank lines part the entries; values can stand above or below the compound they belong to.

Experiments:
[1] = cited from earlier work
TMD8 = conditions: ABC DLBCL lines in vitro (TMD8); cited from earlier work
IL-10 = assay: CSF IL-10 concentration during treatment; type: in vivo, human; conditions: case 6, zanubrutinib monotherapy for 7 d
[2] = tested on: diffuse large B-cell lymphoma (DLBCL); assay: Clinical response of DLBCL patients (Lugano 2014 / 2005 IELSG criteria); type: in vivo, human; conditions: for MRI lesion in the cerebellum: case 5, zanubrutinib monotherapy
Procedure: Patients with treatment-naive and relapsed/refractory DLBCL were enrolled in this study. […] The exclusion criteria were as follows: severe disease complications or serious comorbidities; active infection; uncontrolled bleeding events; and pregnancy or lactation in women.
The dose of zanubrutinib was fixed at 160 mg twice per day in all patients. Treatment duration and the combined drugs/regimens were decided by the clinicians.
Four regimens were evaluated in this study: Regimen 1, zanubrutinib + rituximab in primary vitreoretinal lymphoma (PVRL) (zanubrutinib at 160 mg twice per day until disease progression or intolerance and rituximab at 375 mg/m^2 every 21 days); Regimen 2, zanubrutinib combined with high-dose methotrexate with or without cytarabine (HD-MTX regimen/MA regimen) in CNSL (methotrexate at 3.5–5.0 g/m^2 d1 and cytarabine at […] every 12 h on d2 and d3, every 21 days per cycle); Regimen 3, zanubrutinib combined with dexamethasone, ifosfamide, carboplatin, and etoposide (DICE) or dexamethasone, cytarabine, and cis-platinum (DHAP) in relapsed and refractory patients every 21 days per cycle as prescribed for the salvage chemotherapy of autologous stem cell transplantation (ASCT); and Regimen 4, zanubrutinib combined with rituximab, cyclophosphamide, epirubicin, vindesine, and prednisone (R-CHOP) for eight cycles as an initial treatment in IVLBCL.
The clinical response was assessed based on the Lugano 2014 Criteria for DBLCL and 2005 IELSG Criteria for PCNSL ([24], [25]). AEs were recorded and assessed according to the Common Terminology Criteria for Adverse Events (CTCAE) v4.0.
Continuous variables were expressed as median and range and compared by Mann–Whitney U-test. Categorical variables were reported as percentages and compared by chi-squared test. The duration of response (DOR) was determined using the Kaplan–Meier method. Statistical analyses were performed with SPSS 25.0 (IBM, NY, USA) or Prism 7.0 (GraphPad, CA, USA). P < 0.05 was considered statistically significant.

DLBCL [3] = conditions: cited from earlier work
[4] = LC-MS/MS quantification of zanubrutinib in time-matched plasma and CSF samples of patients; type: in vivo, human; conditions: for concentration at 12 h: read-out: Trough CSF concentration
Procedure: Zanubrutinib is absorbed rapidly with a median time to maximum concentration of 2 h. Blood and CSF samples were collected at 2 or 3 h after the oral administration of zanubrutinib at 160 mg. Zanubrutinib administration was performed for more than 7 d. Additional plasma and CSF specimens for trough concentration testing were collected just before zanubrutinib administration (i.e., 12 h after the last zanubrutinib dose). Biological samples were stored at −20°C for a maximum of one month before analysis.
Zanubrutinib in CSF and sodium heparin plasma samples was quantified by LC-MS/MS. Zanubrutinib standard was obtained from Beigene (Beijing, China). Methanol, methanoic acid, and acetonitrile (high-performance liquid chromatography gradient grade) were purchased from Fisher Scientific, USA. Ultrapure water was obtained using a Milli-Q purification system (Millipore, MA, USA). Control plasma and CSF samples for standards and quality control were obtained from patients treated in the department of hematology of PUMCH. The detailed LC-MS/MS procedure is described in the Supplementary Material .
Zanubrutinib solutions were prepared at a concentration of 1 mg/ml in methanol and further diluted with methanol to obtain working solutions at concentrations of 100–1,000,000 pg/ml. Biological samples (50 µl) were mixed with 10 µl of methanol and 100 µl of acetonitrile. The mixed samples were centrifuged at 2,500 rpm for 3 min at room temperature and at 17,500 rpm for 10 min at 2°C–8°C. The supernatant (120 μl) was then injected into the chromatography system at room temperature.
The analytes were analyzed by reverse-phase chromatography using an UPLC XevoTQ-XS system (Waters Corp., Milford, MA, USA) equipped with an ACQUUITY UPLC®BEH C18 column (2.1×50 mm, 1.7 μm; Waters Corp.). The mobile phase consisted of 0.1% formic acid in acetonitrile and ultrapure water. A mass spectrometer was used in positive mode with an electrospray ionization source. Multiple reaction monitoring mode was used to detect analytes and internal standards.
To create a stock solution of zanubrutinib with a concentration of 1 mg/ml, zanubrutinib (4.55 mg) was added to methanol (4.55 ml). The standard working solution and quality control standard solution of zanubrutinib were then obtained by diluting the stock solution to 1 μg/ml with methanol. To establish the standard curve, the blank control samples of plasma and CSF were added into 50-μl EP tubes followed by the addition of 10 μl standard working solution with different concentrations (see the table below).
The concentrations of analytes in CSF and plasma samples were obtained from the calibration curve constructed by plotting the peak area ratio of each analyte to the internal standard against the concentration. The analyte concentrations in the samples were calculated by linear regression.

[5] = design: method as in package insert; conditions: ref package insert, cited from earlier work
[6] = design: method as in PMID 32583848; conditions: cited from earlier work; for Mean CSF (trough concentration): PCNSL patients
[7] = cited from earlier work; remark: listed apart in the source
DLBCL [8] = conditions: 14-d ibrutinib therapy before TEDDI-R; cited from earlier work
CNSL = conditions: high risk group, prophylaxis; cited from earlier work
[9] = relapsed non-GCB DLBCL, phase 2, 41 patients

Mean CSF ([4]; 160mg bid): 2.94 ng/mL
Mean Plasma ([4]; 160mg bid): 143.2 ng/mL
Samples with peak CSF concentration above the IC50 values ([4]; 22/23 samples): 95.7%
Corrected CSF/plasma ratio ([4]; corrected for 94% protein binding, entire series, 23 samples): 42.7 ± 27.7%
Corrected CSF/plasma ratio ([4]; corrected for 94% protein binding, entire series, 23 samples, listed as zanubrutinib): 42.7% ± 27.7%
Mean plasma concentration ([4]; entire series, 23 samples, peak time point 2-3 h after 160 mg oral, 160 mg twice per day): 143.1906 ± 93.3027 ng/mL
concentration at 2 h ([4]; human, CSF, oral, 160 mg, 2 h after administration, 10 samples, read-out: Mean CSF concentration): 4.12 ± 2.86 ng/mL
concentration at 3 h ([4]; human, CSF, oral, 160 mg, 3 h after administration, 13 samples, read-out: Mean CSF concentration): 2.43 ± 2.03 ng/mL
concentration at 12 h ([4]; human, CSF, oral, 160 mg, case 1, 12 h after the last dose): 0.267 ng/mL
concentration at 12 h ([4]; human, CSF, oral, 160 mg, case 3, 12 h after the last dose): 5.02 ng/mL
Kp at 2 h ([4]; human, CSF/plasma, oral, 160 mg, 2 h after administration, 10 samples, read-out: Corrected CSF/plasma ratio): 0.412 ± 0.325
Kp at 3 h ([4]; human, CSF/plasma, oral, 160 mg, 3 h after administration, 13 samples, read-out: Corrected CSF/plasma ratio): 0.433 ± 0.265
Kp ([4]; human, CSF/plasma, oral, 160 mg, corrected for 94% protein binding, entire series, 23 samples, read-out: Corrected CSF/plasma ratio): ~0.4
Kp ([4]; human, CSF/plasma, oral, 160 mg, corrected for 94% protein binding, entire series, read-out: Corrected CSF/plasma ratio, range): 0.086 to 1.06
Kp ([4]; human, CSF/plasma, oral, 160 mg, not corrected for protein binding, read-out: CSF/plasma ratio): ~0.02
Kp ([4]; human, CSF/plasma, oral, 160 mg, not corrected for protein binding, read-out: CSF/plasma ratio, range): 0.0061 to 0.0583
Kp ([4]; human, CSF/plasma, oral, 160 mg, six patients with repeated samples in different cycles, read-out: CSF/plasma ratio, range among patients): 0.105 to 0.781
concentration at 2 h ([4]; human, plasma, oral, 160 mg, 2 h after administration, 10 samples, read-out: Mean plasma concentration): 183 ± 91.1 ng/mL
concentration at 3 h ([4]; human, plasma, oral, 160 mg, 3 h after administration, 13 samples, read-out: Mean plasma concentration): 126 ± 91.6 ng/mL
SMILES: C=CC(=O)N1CCC([C@@H]2CCNc3c(C(N)=O)c(-c4ccc(Oc5ccccc5)cc4)nn32)CC1 [Zanubrutinib]
Protein binding rate ([1]; zanubrutinib, no reference given): 94%
IC50 (TMD8): 0.4 nM
CSF IL-10 concentration (IL-10): dramatically decreased
MRI lesion in the cerebellum [2]: shrank and disappeared within three weeks
MRI lesion in the cerebellum ([2]; listed as zanubrutinib): the mass shrank and disappeared
Response to monotherapy as lead-in therapy ([2]; two relapsed PCNSL cases, monotherapy before combination chemotherapy): rapid and dramatic response; also recorded: significant disease control within 14 d
Patients who achieved remission (DLBCL [3]; among 75 patients with non-Hodgkin lymphoma (including 23 with DLBCL)): 14
ORR (DLBCL [3]; relapsed non-GCB DLBCL, phase 2, 41 patients, median follow-up 6.8 months): 29.3%
AEs leading to treatment discontinuation, patients (DLBCL [3]; [9]): four
Complete response rate (DLBCL [3]; [9]): 17.1%
Median time to maximum concentration [5]: 2 h
Median time to maximum concentration ([5]; listed as zanubrutinib): approximately 2 h

SMILES: CC#CC(=O)N1CC[C@@H](n2c(=O)n(-c3ccc(Oc4ccccc4)cc3)c3c(N)ncnc32)C1 [Tirabrutinib]
Mean CSF (trough concentration) ([6]; 320mg qd): 2.19 ng/mL
Mean CSF (trough concentration) ([6]; 320mg qd, listed as tirabrutinib): 2.19 ± 0.476 ng/mL
Mean Plasma ([6]; 320mg qd): 16.3 ng/mL
Mean CSF (trough concentration) ([6]; 480mg qd): 14.0 ng/mL
Mean CSF (trough concentration) ([6]; 480mg qd, listed as tirabrutinib): 14.0 ± 8.92 ng/mL
Mean Plasma ([6]; 480mg qd): 77.0 ng/mL

SMILES: C=CC(=O)N1CCC[C@@H](n2nc(-c3ccc(Oc4ccccc4)cc3)c3c(N)ncnc32)C1 [Ibrutinib, ibrutinib]
Protein binding ([1]; ibrutinib): 97.3%
Mean Plasma ([7]; 560mg qd): 53.7 ng/mL
Mean Plasma ([7]; 700mg qd): 217.4 ng/mL
Mean Plasma ([7]; 840mg qd): 875.6 ng/mL
Patients with disease improvement after monotherapy (DLBCL [8]): 94%

SMILES: CN(Cc1cnc2nc(N)nc(N)c2n1)c1ccc(C(=O)N[C@@H](CCC(=O)O)C(=O)O)cc1 [high-dose MTX, methotrexate]
CNS relapsing rate (CNSL): > 10%
